Patent US8889902B2, “Acetylsalicylic acid salts” (priority 2009, dated 2014)

Columns and labels:
[1] = background statement; cited from earlier work
[2] = tested on: platelet aggregation; test: Platelet aggregation ex vivo after 3 days treatment; assay type: in vivo, rats
Protocol: Platelet aggregation was studied using whole blood impedance aggregometry on Multiplate (Multiple Platelet Function Analyzer, Dynabyte Medical, Germany) (Toth O et al, Thromb Haemost 2006; 96:781-788. […] Blood samples for in vitro experiment were collected from healthy donor B. […] In the ex vivo experiment blood was collected into plastic tubes covered with hirudin (Dynabyte Medical, Germany) from narcotized rats that were treated for 3 previous days with test substances p.o. The measurements were performed according to modified Dynabyte Medical protocol. […] After 5 min incubation and stirring at 37° C., measurements were initiated by adding of the appropriate agonist solution (sourced from Dynabyte Medical, Germany): After the thrombosis experiment the narcotized animals who received test substances for 3 days were used for platelet aggregation test ex vivo. […] Blood samples were used for measurement between 30 min and 4 h after collection. The measurements were performed according to modified Dynabyte Medical protocol (see above under Platelet aggregation).

[3] = tested on: Wistar rats; settings: rats p.o., cited from earlier work
[4] = tested on: blood flow in the right ear artery; test: Cutaneous vasodilatation caused by nicotinic acid, ear artery blood flow; assay type: in vivo, Wistar rats; settings: maximal change to baseline
Protocol: Model. […] Blood pressure was measured in left carotid artery, ECG recorded by standard II lead. […] Blood flow, ECG and arterial pressure were registered by AD Instruments PowerLab systems and stored in computer for further processing. […] The average blood flow data for each animal were calculated taking into account the average blood pressure and compared with initial and control. […] Statistics.

[5] = tested on: ICR mice; test: Acute toxicity of MASA to mice p.o.; assay type: in vivo; settings: P = 0.05
Protocol: (§1) The acute toxicity of MASA was determined on Wistar rats and ICR mice by p.o. introduction.
(§2) Male IRC mice with body mass of 20-22 g and Wistar rats with body mass of 200-230 g were used. For determining the acute toxicity each dose was given to 6 animals, each next dose was increased by 500 mg/kg. LD50 was calculated after Karber by the method of Akhila J S et al, Current Sci 2007; 93:917-920 with modification for determining the dose confidence interval (Turner R In Screening Methods in Pharmacology, Acad. Press, New York, 1965, 61-63).
(§3) LD50 was calculated as follows: LD50=Least dose lethal to all in a group−Σ(a×b)/N N—number of animals in each group a—the dose difference b—the mean mortality (lethality in 2 neighbouring groups/2)
(§4) MASA was dissolved ex tempore in 0.2% agar-agar and introduced per os through catheter into stomach. […] Animals were observed till the Day 10 after introduction.

[6] = tested on: serum lipid levels (C, HDL, LDL, TG); test: Chronic hyperlipidemia model (Triton WR1339, 3 weeks); assay type: in vivo, Wistar rats; settings: TR 250 mg/kg 3x/week
Protocol: Male Wistar rats were used. Animals were held in climatized rooms 22±1° C. with relative humidity 60±5%, and 12/12-hour light/dark cycle with free access to water and feed. Initial weight of animals was 220-240 g. Experimental chronical (subchronical) hyperlipidemia/hypercholesterolemia was induced by TR using the method described by Levine and Saltzman (Levine S, Saltzman A, J Pharmacol Toxicol Meth 2007; 55:224-226). Animals received 250 mg/kg of TR solution via tail vein three times a week for 3 weeks. Solutions of test substances or water for Control and TR group was introduced p.o. once a day one hour before injection of TR solution or taking a blood sample according to the following scheme:
Blood for biochemical analyses was obtained after 1, 2 and 3 weeks (on the next day after the TR injection) by cardiac punction under ether narcosis. Serum was separated by centrifugation and analyzed for total C, HDL, LDL and TG levels by commercial kits. Statistics.

[7] = tested on: Wistar rats; test: Acute toxicity of MASA to rats p.o.; assay type: in vivo; settings: P = 0.05
Protocol: as §1, §2, §3, §4

[8] = AA induced, 5 mg/kg/d p.o. 3 days
[9] = ADP induced, 5 mg/kg/d p.o. 3 days
[10] = PGE1 + ADP induced, 5 mg/kg/d p.o. 3 days
[11] = AA induced, 10 mg/kg/d p.o. 3 days
[12] = ADP induced, 10 mg/kg/d p.o. 3 days
[13] = PGE1 + ADP induced, 10 mg/kg/d p.o. 3 days

## CC(=O)Oc1ccccc1C(=O)O [ASA, acetylsalicylic acid]
[1]
  solubility in water: about 0.3%
[2]; [8]
  AUC: 550 ± 31.3^2 AU*min
  Amax: 86.1 ± 6.8^2 AU
[2]; [9]
  AUC: 768 ± 53.2 AU*min
  Amax: 150.3 ± 13.5 AU
[2]; [10]
  AUC: 794 ± 48.6 AU*min
  Amax: 147.2 ± 11.8 AU
[3]; given by Bayer AG
  LD50: > 1100 mg/kg
[3]; given by Boehringer Ingelheim, Acros Chemicals, Sigma-Aldrich
  Acute toxicity (LD50): 200 mg/kg

## CC(=O)Oc1ccccc1C(=O)[O-].C[N+](C)(C)NCCC(=O)O [MASA, 3-(trimethylammonioamino)propanoate Acetylsalicylic Acid Addition Salt]
[4]; 45 mg/kg s.c.
  Changes in blood flow, %: 8.04 ± 2.02^$ %
[5]
  confidence interval for LD50: Factor f at P = 0.05 for this experiment is 1.32, therefore the confidence interval for LD50 is 1642-2860 (mg/kg).
[2]; [11]
  AUC: 232 ± 44.1^2&a AU*min
  Amax: 48.2 ± 9.7^3&a AU
[2]; [12]
  AUC: 528 ± 46.5^1 AU*min
  Amax: 75.5 ± 12.8^2 AU
[2]; [13]
  AUC: 195 ± 35.3^3 AU*min
  Amax: 41.4 ± 14.8^2 AU
[6]; MASA 150 mg/kg/d p.o.
  HDL after 1 week (HDL1): 100.1 ± 9.4 mg/dL
  HDL after 2 weeks (HDL2): 113.8 ± 13.1 mg/dL
  HDL after 3 weeks (HDL3): 128.3 ± 18.5 mg/dL
  LDL after 1 week (LDL1): 263.3 ± 19.4 mg/dL
  LDL after 2 weeks (LDL2): 287.6 ± 18.5 mg/dL
  LDL after 3 weeks (LDL3): 261.9 ± 12.6 mg/dL
  TG after 1 week (TG1): 964 ± 94.9 mg/dL
  TG after 2 weeks (TG2): 1079 ± 84 mg/dL
  TG after 3 weeks (TG3): 982 ± 72.7 mg/dL
  Total C after 1 week (C1): 375.9 ± 25.8 mg/dL
  Total C after 2 weeks (C2): 406.7 ± 19.8 mg/dL
  Total C after 3 weeks (C3): 409 ± 39.4 mg/dL
[7]
  confidence interval for LD50: Factor f at P = 0.05 for this experiment is 1.308, therefore the confidence interval for LD50 is 1720 ÷ 2944 (mg/kg).

## O=C(O)c1cccnc1 [NA, nicotinic acid]
[4]; 15 mg/kg s.c.
  Changes in blood flow, %: 55.75 ± 11.5 %
[6]; NA 50 mg/kg/d p.o.
  HDL after 1 week (HDL1): 111.3 ± 9.1 mg/dL
  HDL after 2 weeks (HDL2): 144.7 ± 13.5 mg/dL
  HDL after 3 weeks (HDL3): 127.3 ± 10.9 mg/dL
  LDL after 1 week (LDL1): 216.3 ± 14.0 mg/dL
  LDL after 2 weeks (LDL2): 250.3 ± 20.6 mg/dL
  LDL after 3 weeks (LDL3): 265.1 ± 18.4 mg/dL
  TG after 1 week (TG1): 734 ± 81.6 mg/dL
  TG after 2 weeks (TG2): 860 ± 73.8 mg/dL
  TG after 3 weeks (TG3): 828 ± 44.7 mg/dL
  Total C after 1 week (C1): 345 ± 15.7 mg/dL
  Total C after 2 weeks (C2): 401.1 ± 25.1 mg/dL
  Total C after 3 weeks (C3): 405.5 ± 25.9 mg/dL
